Assay results reported in ChEMBL document CHEMBL1157528, “Mixed tetraoxanes containing the acetone subunit as antimalarials” (Bioorg Med Chem, 2008).
Activity calls are given as the source filed them. No cut-off for these calls is given here.

What was measured:
Plasmodium falciparum [1] = assay: microbe, parasite or virus in culture; details: D6
Description: Antimalarial activity against chloroquine and pyrimethamine-sensitive Plasmodium falciparum D6

Plasmodium berghei [2] = assay: Antimalarial activity as reduced parasitaemia after 17 days against Plasmodium berghei KBG173 infected CD1 mice (Mus musculus) at 40 mg/kg/day subcutaneous dose; assay type: functional; design: scale not given: the % may be the effect or the level left
Plasmodium falciparum [3] = assay: Relative activity against Plasmodium falciparum W2 as ratio of IC90 to IC50; assay type: functional
Plasmodium berghei [4] = assay: Antimalarial activity as reduced parasitaemia at day 6 in Plasmodium berghei KBG173 infected CD1 mice (Mus musculus) at 20 mg/kg/day subcutaneous dose; assay type: functional; design: scale not given: the % may be the effect or the level left
Plasmodium berghei [5] = assay: Antimalarial activity as parasite-free survivors at day 31 of Plasmodium berghei KBG173 infected CD1 mice (Mus musculus) at 20 mg/kg/day subcutaneous dose; assay type: functional, organism-based
Plasmodium berghei [6] = assay: Antimalarial activity as parasite-free survivors at day 31 of Plasmodium berghei KBG173 infected CD1 mice (Mus musculus) at 160 mg/kg/day subcutaneous dose; assay type: functional, organism-based
Plasmodium berghei [7] = assay: Antimalarial activity as parasite-free survivors at day 31 of Plasmodium berghei KBG173 infected CD1 mice (Mus musculus) at 20 mg/kg/day peroral dose; assay type: functional, organism-based
[8] = Cytotoxicity against human NCI60 cells; assay type: functional
Plasmodium berghei [9] = assay: Antimalarial activity as survival time against Plasmodium berghei KBG173 infected CD1 mice (Mus musculus) at 80 mg/kg/day subcutaneous dose; assay type: functional
Plasmodium berghei [10] = assay: Antimalarial activity as survival time against Plasmodium berghei KBG173 infected CD1 mice (Mus musculus) at 80 mg/kg/day peroral dose 3 - 5 days post infection; assay type: functional; details: route oral
Plasmodium berghei [11] = assay: Antimalarial activity as survival time in Plasmodium berghei KBG173 infected CD1 mice (Mus musculus) at 320 mg/kg/day peroral dose; assay type: functional; details: route oral
Plasmodium berghei [12] = assay: Antimalarial activity as reduced parasitaemia after 10 days against Plasmodium berghei KBG173 infected CD1 mice (Mus musculus) at 40 mg/kg/day subcutaneous dose; assay type: functional; design: scale not given: the % may be the effect or the level left
Plasmodium berghei [13] = assay: Antimalarial activity as reduced parasitaemia after 20 days against Plasmodium berghei KBG173 infected CD1 mice (Mus musculus) at 40 mg/kg/day subcutaneous dose; assay type: functional; design: scale not given: the % may be the effect or the level left
[14] = Metabolic stability in mouse liver microsomes assessed as half life at 10 uM; assay type: ADME, Microsome
Plasmodium berghei [15] = assay: Antimalarial activity as reduced parasitaemia at day 20 against Plasmodium berghei KBG173 infected CD1 mice (Mus musculus) at 320 mg/kg/day peroral dose; assay type: functional; design: scale not given: the % may be the effect or the level left; details: route oral
Plasmodium berghei [16] = assay: Antimalarial activity as reduced parasitaemia after 10 days against Plasmodium berghei KBG173 infected CD1 mice (Mus musculus) at 20 mg/kg/day subcutaneous dose; assay type: functional; design: scale not given: the % may be the effect or the level left
Plasmodium berghei [17] = assay: Antimalarial activity as reduced parasitaemia after 31 days against Plasmodium berghei KBG173 infected CD1 mice (Mus musculus) at 320 mg/kg/day peroral dose; assay type: functional; design: scale not given: the % may be the effect or the level left; details: route oral
Plasmodium berghei [18] = assay: Antimalarial activity as reduced parasitaemia after 27 days against Plasmodium berghei KBG173 infected CD1 mice (Mus musculus) at 40 mg/kg/day subcutaneous dose; assay type: functional; design: scale not given: the % may be the effect or the level left
Plasmodium berghei [19] = assay: Antimalarial activity as reduced parasitaemia after 31 days against Plasmodium berghei KBG173 infected CD1 mice (Mus musculus) at 40 mg/kg/day subcutaneous dose; assay type: functional; design: scale not given: the % may be the effect or the level left
Plasmodium berghei [20] = assay: Antimalarial activity against Plasmodium berghei KBG173 infected CD1 mice (Mus musculus) assessed as survival time at 80 mg/kg/day, subcutaneously administered on day 3 twice a day; assay type: functional; details: route subcutaneous
Plasmodium berghei [21] = assay: Antimalarial activity as survival time in Plasmodium berghei KBG173 infected CD1 mice (Mus musculus) at 20 mg/kg/day peroral dose; assay type: functional; details: route oral
[22] = Metabolic stability in human liver microsomes assessed as half life at 10 uM; assay type: ADME, Microsome
Plasmodium berghei [23] = assay: Antimalarial activity as reduced parasitaemia after 24 days against Plasmodium berghei KBG173 infected CD1 mice (Mus musculus) at 40 mg/kg/day subcutaneous dose; assay type: functional; design: scale not given: the % may be the effect or the level left
Plasmodium berghei [24] = assay: Antimalarial activity as reduced parasitaemia after 24 days against Plasmodium berghei KBG173 infected CD1 mice (Mus musculus) at 320 mg/kg/day peroral dose; assay type: functional; design: scale not given: the % may be the effect or the level left; details: route oral
Plasmodium berghei [25] = assay: Antimalarial activity as reduced parasitaemia after 13 days against Plasmodium berghei KBG173 infected CD1 mice (Mus musculus) at 20 mg/kg/day subcutaneous dose; assay type: functional; design: scale not given: the % may be the effect or the level left
Plasmodium falciparum [26] = assay: microbe, parasite or virus in culture; details: TM91C235
Description: Antimalarial activity against mefloquine, chloroquine and quinine-resistant Plasmodium falciparum TM91C235

Plasmodium berghei [27] = assay: Antimalarial activity as reduced parasitaemia after 13 days against Plasmodium berghei KBG173 infected CD1 mice (Mus musculus) at 40 mg/kg/day subcutaneous dose; assay type: functional; design: scale not given: the % may be the effect or the level left
Plasmodium berghei [28] = assay: Antimalarial activity as reduced parasitaemia after 17 days against Plasmodium berghei KBG173 infected CD1 mice (Mus musculus) at 20 mg/kg/day subcutaneous dose; assay type: functional; design: scale not given: the % may be the effect or the level left
Plasmodium berghei [29] = assay: Antimalarial activity as reduced parasitaemia at day 17 against Plasmodium berghei KBG173 infected CD1 mice (Mus musculus) at 320 mg/kg/day peroral dose; assay type: functional; design: scale not given: the % may be the effect or the level left; details: route oral
Plasmodium berghei [30] = assay: Antimalarial activity as survival time against Plasmodium berghei KBG173 infected CD1 mice (Mus musculus) at 160 mg/kg/day subcutaneous dose; assay type: functional
Plasmodium falciparum [31] = assay: microbe, parasite or virus in culture; details: W2
Description: Antimalarial activity against chloroquine and pyrimethamine-resistant Plasmodium falciparum W2

Plasmodium berghei [32] = assay: Antimalarial activity as reduced parasitaemia after 27 days against Plasmodium berghei KBG173 infected CD1 mice (Mus musculus) at 320 mg/kg/day peroral dose; assay type: functional; design: scale not given: the % may be the effect or the level left; details: route oral

CC(=O)O[C@H]1C[C@H]2[C@@H]([C@H](OC(C)=O)C[C@@H]3CC4(CC[C@@]32C)OOC(C)(C)OO4)[C@@H]2CC[C@H]([C@H](C)CCC(=O)NCCN(C)C)[C@@]12C
IC50 (Plasmodium falciparum [1]): 11.6 nM
IC90 (Plasmodium falciparum [1]): 26.2 nM
Activity (Plasmodium berghei [2]): 15.48%
Ratio (Plasmodium falciparum [3]): 1.71
Activity (Plasmodium berghei [4]): 0.002%
Activity (Plasmodium berghei [5]): inactive
Activity (Plasmodium berghei [6]): Active
Activity (Plasmodium berghei [7]): inactive
GI50 [8]: 3390 nM
LC50 [8]: 22400 nM
TGI [8]: 10200 nM
Survival (Plasmodium berghei [9]): 25 days
Survival (Plasmodium berghei [10]): 14 days
Survival (Plasmodium berghei [11]): 29 days
Activity (Plasmodium berghei [12]): 0%
Activity (Plasmodium berghei [13]): 3.9%
half-life at 10 µM [14]: > 1 h
Activity (Plasmodium berghei [15]): 1.9%
Activity (Plasmodium berghei [16]): 0.032%
Activity (Plasmodium berghei [17]): 0%
Activity (Plasmodium berghei [18]): 0%
Activity (Plasmodium berghei [19]): 0%
Survival (Plasmodium berghei [20]): 16 days
Survival (Plasmodium berghei [21]): 8 days
half-life at 10 µM [22]: > 1 h
Activity (Plasmodium berghei [23]): 12.53%
Activity (Plasmodium berghei [24]): 1.4%
Activity (Plasmodium berghei [25]): 8.72%
IC50 (Plasmodium falciparum [26]): 7.16 nM
IC90 (Plasmodium falciparum [26]): 19.8 nM
Activity (Plasmodium berghei [27]): 0.004%
Activity (Plasmodium berghei [28]): 26.8%
Activity (Plasmodium berghei [29]): 2.36%
Survival (Plasmodium berghei [30]): 31 days
IC50 (Plasmodium falciparum [31]): 9.79 nM
IC90 (Plasmodium falciparum [31]): 16.8 nM
Activity (Plasmodium berghei [32]): 0%
